Laboratory results: ChEMBL document CHEMBL4371076 (J Med Chem, 2019)
Activity calls are given as the source filed them.

What was measured:
[1] = Unbound drug level in DRG neurons of CD1 mouse model of formalin-induced nociception at 30 mg/kg, po; type: ADME, organism-based, DRG neuron; conditions: in vivo
[2] = Metabolic stability in rat liver microsomes assessed as parent compound remaining at 0.5 uM after 10 mins; type: ADME, Microsome; conditions: read-out: Stability
[3] = biological target: Sodium channel protein type 5 subunit alpha (Homo sapiens, UniProt Q14524); test: Inhibition of human Nav1.5 expressed in HEK293 cells after 600 secs at -50 mV holding potential by ion works barracuda population patch clamp method; type: cell-based
Sodium channel protein type 5 subunit alpha, sequence (Q14524 whole entry): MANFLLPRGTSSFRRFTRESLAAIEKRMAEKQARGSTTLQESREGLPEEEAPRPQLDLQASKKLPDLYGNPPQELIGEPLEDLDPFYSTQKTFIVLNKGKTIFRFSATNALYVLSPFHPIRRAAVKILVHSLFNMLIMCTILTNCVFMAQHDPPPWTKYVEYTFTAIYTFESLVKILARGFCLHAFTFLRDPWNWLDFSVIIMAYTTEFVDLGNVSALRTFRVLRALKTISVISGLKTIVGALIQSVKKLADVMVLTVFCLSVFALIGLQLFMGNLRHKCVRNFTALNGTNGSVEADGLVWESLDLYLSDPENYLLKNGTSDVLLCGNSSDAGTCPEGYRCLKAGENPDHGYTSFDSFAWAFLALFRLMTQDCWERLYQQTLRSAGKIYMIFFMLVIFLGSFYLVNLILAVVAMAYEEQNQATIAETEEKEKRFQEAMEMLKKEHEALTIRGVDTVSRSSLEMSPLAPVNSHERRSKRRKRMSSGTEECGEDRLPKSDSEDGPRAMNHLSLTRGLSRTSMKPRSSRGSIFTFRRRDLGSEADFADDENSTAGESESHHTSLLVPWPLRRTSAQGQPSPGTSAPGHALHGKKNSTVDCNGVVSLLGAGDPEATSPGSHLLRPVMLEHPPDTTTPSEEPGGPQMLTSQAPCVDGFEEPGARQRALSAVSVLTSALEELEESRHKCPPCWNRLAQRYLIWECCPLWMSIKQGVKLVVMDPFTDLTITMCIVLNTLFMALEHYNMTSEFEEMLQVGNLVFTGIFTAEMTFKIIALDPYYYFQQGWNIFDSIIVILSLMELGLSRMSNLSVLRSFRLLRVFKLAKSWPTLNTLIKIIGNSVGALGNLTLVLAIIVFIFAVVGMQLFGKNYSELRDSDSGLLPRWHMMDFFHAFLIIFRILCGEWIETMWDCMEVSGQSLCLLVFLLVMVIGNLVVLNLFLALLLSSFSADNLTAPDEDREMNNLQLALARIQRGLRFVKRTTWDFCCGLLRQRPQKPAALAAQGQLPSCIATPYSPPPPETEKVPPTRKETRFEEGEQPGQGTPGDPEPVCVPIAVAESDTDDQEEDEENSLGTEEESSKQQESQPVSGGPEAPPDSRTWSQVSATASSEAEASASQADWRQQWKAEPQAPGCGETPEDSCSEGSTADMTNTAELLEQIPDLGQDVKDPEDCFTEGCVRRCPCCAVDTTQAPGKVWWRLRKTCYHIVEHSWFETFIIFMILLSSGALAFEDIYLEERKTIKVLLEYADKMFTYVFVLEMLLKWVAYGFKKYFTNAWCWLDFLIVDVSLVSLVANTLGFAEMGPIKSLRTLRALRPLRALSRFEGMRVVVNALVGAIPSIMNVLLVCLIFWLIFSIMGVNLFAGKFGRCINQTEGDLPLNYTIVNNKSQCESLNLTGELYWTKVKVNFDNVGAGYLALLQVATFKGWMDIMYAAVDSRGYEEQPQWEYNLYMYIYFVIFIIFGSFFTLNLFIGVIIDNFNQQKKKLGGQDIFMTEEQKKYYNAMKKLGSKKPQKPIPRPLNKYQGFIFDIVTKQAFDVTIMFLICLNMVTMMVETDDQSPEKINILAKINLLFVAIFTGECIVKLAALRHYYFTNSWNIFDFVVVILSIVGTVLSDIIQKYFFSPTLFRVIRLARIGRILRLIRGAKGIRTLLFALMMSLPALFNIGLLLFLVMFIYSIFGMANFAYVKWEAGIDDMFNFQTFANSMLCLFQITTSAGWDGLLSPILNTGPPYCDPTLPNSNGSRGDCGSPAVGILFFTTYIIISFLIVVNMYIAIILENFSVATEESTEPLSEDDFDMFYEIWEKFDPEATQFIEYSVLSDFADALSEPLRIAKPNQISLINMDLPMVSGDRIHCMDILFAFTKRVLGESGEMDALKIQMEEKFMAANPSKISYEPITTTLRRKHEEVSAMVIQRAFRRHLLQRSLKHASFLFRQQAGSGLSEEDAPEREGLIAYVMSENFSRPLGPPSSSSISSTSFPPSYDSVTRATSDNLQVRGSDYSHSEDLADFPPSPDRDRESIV

Cytochrome P450 2B6 [4] = biological target: T1, Cytochrome P450 2B6 (Homo sapiens, UniProt P20813); test: Time-dependant inhibition of CYP2B6 in human liver microsomes; type: ADME
T1 sequence (P20813 whole entry): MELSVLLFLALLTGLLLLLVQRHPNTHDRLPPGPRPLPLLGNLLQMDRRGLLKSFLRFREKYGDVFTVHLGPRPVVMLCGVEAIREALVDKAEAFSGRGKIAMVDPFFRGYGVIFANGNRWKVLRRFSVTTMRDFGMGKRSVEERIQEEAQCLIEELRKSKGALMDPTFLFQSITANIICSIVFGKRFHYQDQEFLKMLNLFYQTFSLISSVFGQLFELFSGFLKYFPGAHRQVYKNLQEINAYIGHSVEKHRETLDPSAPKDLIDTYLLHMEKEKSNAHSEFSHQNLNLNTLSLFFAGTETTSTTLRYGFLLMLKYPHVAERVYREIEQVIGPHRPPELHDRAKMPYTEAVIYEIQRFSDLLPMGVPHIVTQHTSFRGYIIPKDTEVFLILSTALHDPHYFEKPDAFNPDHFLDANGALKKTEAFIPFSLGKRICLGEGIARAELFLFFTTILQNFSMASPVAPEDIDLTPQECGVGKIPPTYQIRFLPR

[5] = Toxicity in CD1 mouse model of formalin-induced nociception assessed as prostration or sedation at 30 mg/kg, po; type: organism-based; conditions: in vivo
Mus musculus [6] = test: Analgesic activity in CD1 mouse model of formalin-induced nociception assessed as reduction in formalin-evoked paw flinching/licking response during first phase at 30 mg/kg, po pretreated for 30 mins followed by formalin treatment and measured during first 5 mins post formalin injection; type: functional, organism-based
Cytochrome P450 2D6 = Cytochrome P450 2D6 (Homo sapiens, UniProt P10635); test: Inhibition of CYP2D6 in human liver microsomes; type: ADME
Cytochrome P450 2D6, sequence (P10635 whole entry): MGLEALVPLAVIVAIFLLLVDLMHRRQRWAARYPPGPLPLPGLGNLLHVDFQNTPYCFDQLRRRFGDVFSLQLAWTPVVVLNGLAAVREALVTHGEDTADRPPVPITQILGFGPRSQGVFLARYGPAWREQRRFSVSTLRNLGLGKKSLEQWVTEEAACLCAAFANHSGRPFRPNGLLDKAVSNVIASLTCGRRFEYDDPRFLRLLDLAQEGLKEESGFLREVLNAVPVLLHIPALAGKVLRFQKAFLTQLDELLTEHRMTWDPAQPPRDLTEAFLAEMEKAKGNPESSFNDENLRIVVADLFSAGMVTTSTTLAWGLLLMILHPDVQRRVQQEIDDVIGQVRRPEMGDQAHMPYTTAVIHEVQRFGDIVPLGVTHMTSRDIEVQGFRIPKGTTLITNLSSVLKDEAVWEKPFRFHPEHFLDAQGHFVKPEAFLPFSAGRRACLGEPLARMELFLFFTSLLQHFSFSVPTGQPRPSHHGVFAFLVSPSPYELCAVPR

[7] = Toxicity in CD1 mouse model of formalin-induced nociception assessed as hypothermia at 30 mg/kg, po; type: organism-based; conditions: in vivo
[8] = Permeability of the compound at pH 5.5 by PAMPA; type: ADME; conditions: read-out: permeability
[9] = Unbound plasma concentration in CD1 mouse model of formalin-induced nociception at 30 mg/kg, po; type: ADME, organism-based; conditions: in vivo
[10] = Plasma concentration in mouse model of mechanoreceptor-mediated afferent transmission at 30 mg/kg, ip after 2 hrs; type: ADME, organism-based
Cytochrome P450 2C9 = Cytochrome P450 2C9 (Homo sapiens, UniProt P11712); test: Time-dependant inhibition of CYP2C9 in human liver microsomes; type: ADME
Cytochrome P450 2C9, sequence (P11712 whole entry): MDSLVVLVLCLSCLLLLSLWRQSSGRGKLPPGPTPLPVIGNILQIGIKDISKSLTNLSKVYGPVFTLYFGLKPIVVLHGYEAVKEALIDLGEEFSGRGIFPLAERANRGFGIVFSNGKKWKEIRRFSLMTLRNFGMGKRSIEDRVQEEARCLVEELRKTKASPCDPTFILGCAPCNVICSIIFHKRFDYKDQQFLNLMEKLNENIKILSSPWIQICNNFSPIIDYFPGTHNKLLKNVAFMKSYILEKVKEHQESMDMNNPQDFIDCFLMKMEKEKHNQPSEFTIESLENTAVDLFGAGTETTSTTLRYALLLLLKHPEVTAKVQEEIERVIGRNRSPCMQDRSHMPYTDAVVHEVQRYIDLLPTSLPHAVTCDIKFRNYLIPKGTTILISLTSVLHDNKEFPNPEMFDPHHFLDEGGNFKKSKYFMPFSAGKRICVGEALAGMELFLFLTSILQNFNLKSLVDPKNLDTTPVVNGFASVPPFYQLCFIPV

Cytochrome P450 2B6 [11] = biological target: T1, Cytochrome P450 2B6; test: Inhibition of CYP2B6 in human liver microsomes; type: ADME
[12] = Ratio of fraction unbound in mouse DRG neurons to IC50 for mouse DRG Nav1.7 at -70 mV holding potential by patch clamp electrophysiology method
[13] = biological target: Sodium channel protein type 9 subunit alpha (Homo sapiens, UniProt Q15858); test: Inhibition of recombinant human Nav1.7 expressed in HEK293 cells assessed as dissociation time constant at -120 mV holding potential by patch clamp electrophysiology method; type: cell-based
Sodium channel protein type 9 subunit alpha, sequence (Q15858 whole entry, looked up): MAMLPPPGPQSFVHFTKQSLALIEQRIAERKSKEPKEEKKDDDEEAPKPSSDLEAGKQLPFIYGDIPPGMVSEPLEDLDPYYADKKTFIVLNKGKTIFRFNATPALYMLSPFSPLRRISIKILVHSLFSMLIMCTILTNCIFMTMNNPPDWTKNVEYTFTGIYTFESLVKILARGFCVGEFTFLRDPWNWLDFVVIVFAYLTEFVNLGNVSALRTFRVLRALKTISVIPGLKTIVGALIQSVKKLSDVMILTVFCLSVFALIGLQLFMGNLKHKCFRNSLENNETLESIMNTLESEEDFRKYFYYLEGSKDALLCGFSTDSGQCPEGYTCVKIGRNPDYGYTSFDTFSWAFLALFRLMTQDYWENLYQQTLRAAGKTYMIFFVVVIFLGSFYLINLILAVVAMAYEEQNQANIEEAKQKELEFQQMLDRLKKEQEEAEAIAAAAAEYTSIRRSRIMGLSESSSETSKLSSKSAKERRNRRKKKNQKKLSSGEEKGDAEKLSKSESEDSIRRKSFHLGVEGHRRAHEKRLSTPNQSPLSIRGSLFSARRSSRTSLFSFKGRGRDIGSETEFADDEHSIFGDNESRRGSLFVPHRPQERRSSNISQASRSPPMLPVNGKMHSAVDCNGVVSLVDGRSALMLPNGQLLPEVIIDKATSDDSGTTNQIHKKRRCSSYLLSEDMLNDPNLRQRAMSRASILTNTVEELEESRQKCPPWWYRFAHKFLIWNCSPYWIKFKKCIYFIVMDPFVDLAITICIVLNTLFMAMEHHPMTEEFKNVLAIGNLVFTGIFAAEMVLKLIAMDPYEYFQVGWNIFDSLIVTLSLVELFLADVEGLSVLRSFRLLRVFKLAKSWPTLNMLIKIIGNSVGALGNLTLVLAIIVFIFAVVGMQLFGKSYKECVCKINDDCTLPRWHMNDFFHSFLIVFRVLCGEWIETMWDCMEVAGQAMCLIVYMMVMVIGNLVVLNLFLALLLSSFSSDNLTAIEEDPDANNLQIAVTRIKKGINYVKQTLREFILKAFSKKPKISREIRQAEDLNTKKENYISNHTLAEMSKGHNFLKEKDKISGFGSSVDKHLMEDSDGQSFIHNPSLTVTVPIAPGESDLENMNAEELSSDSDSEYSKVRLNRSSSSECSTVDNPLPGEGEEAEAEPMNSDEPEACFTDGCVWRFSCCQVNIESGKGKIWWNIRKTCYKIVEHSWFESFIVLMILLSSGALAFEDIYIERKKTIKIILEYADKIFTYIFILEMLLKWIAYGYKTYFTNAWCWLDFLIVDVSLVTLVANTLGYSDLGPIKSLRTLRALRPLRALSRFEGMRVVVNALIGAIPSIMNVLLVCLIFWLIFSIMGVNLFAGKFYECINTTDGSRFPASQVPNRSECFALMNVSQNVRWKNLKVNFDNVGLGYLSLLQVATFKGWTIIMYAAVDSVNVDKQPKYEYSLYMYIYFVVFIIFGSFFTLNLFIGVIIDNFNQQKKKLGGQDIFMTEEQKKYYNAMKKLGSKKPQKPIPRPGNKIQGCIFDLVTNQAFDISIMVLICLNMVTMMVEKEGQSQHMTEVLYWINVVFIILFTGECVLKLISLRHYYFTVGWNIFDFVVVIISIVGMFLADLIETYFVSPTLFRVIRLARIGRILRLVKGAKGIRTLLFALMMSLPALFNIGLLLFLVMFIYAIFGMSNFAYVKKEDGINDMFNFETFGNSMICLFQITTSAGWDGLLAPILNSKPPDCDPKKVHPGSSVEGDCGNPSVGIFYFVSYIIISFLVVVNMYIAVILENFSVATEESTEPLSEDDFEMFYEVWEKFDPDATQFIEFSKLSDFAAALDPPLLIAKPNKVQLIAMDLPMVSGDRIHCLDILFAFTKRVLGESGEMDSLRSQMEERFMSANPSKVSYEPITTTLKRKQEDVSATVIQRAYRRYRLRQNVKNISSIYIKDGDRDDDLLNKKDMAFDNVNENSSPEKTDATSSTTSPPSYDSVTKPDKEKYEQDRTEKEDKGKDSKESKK

Mus musculus [14] = test: Analgesic activity in CD1 mouse model of formalin-induced nociception assessed as reduction in formalin-evoked paw flinching/licking response during second phase at 30 mg/kg, po pretreated for 30 mins followed by formalin treatment and measured during 15 to 45 mins post formalin injection; type: functional, organism-based
[15] = Plasma concentration in CD1 mouse model of formalin-induced nociception at 30 mg/kg, po; type: ADME, organism-based; conditions: read-out: Cp, in vivo
[16] = Fraction unbound in human plasma; type: ADME, cell-free
[17] = Metabolic stability in human liver microsomes assessed as parent compound remaining at 0.5 uM after 10 mins; type: ADME, Microsome; conditions: read-out: Stability
Mus musculus [18] = species on record: Mus musculus; test: Reduction in mechanoreceptor-mediated afferent transmission in mouse sural nerve assessed as decrease in mechanically elicited afferent firing at 30 to 100 uM measured at 20 mins post dose at 1.6 to 980 mN threshold pressure; type: functional, tissue-based
[19] = Plasma concentration in CD1 mouse model of chronic constriction injury-induced cold allodynia at 3 mg/kg, ip dosed at 5 weeks post surgery and measured 60 mins post dose; type: ADME, organism-based
Mus musculus [20] = test: Analgesic activity in CD1 mouse model of formalin-induced nociception assessed as reduction in formalin-evoked paw flinching/licking response during first phase at 3 to 10 mg/kg, ip pretreated for 30 mins followed by formalin treatment and measured during first 5 mins post formalin injection; type: functional, organism-based
[21] = Unbound plasma concentration in CD1 mouse model of chronic constriction injury-induced cold allodynia at 30 mg/kg, ip dosed at 5 weeks post surgery and measured 60 mins post dose; type: ADME, organism-based; conditions: in vivo, 1 h
[22] = Unbound drug level in DRG neurons of CD1 mouse model of formalin-induced nociception at 30 mg/kg, ip; type: ADME, organism-based, DRG neuron; conditions: in vivo
Mus musculus [23] = species on record: Mus musculus; test: Reduction in mechanoreceptor-mediated afferent transmission in mouse sural nerve assessed as decrease in mechanically elicited afferent firing at 10 to 30 uM measured at 20 mins post dose at 1.6 to 980 mN threshold pressure; type: functional, tissue-based
[24] = biological target: Sodium channel protein type 4 subunit alpha (Homo sapiens, UniProt P35499); test: Inhibition of human Nav1.4 expressed in HEK293 cells after 600 secs at -60 mV holding potential by ion works barracuda population patch clamp method; type: cell-based
[25] = Plasma concentration in CD1 mouse model of formalin-induced nociception at 30 mg/kg, ip; type: ADME, organism-based; conditions: read-out: Cp, in vivo
[26] = biological target: Sodium channel protein type 3 subunit alpha (Homo sapiens, UniProt Q9NY46); test: Inhibition of human Nav1.3 expressed in HEK293 cells after 600 secs at -60 mV holding potential by ion works barracuda population patch clamp method; type: cell-based
[27] = Plasma concentration in CD1 mouse model of chronic constriction injury-induced cold allodynia at 10 mg/kg, ip dosed at 5 weeks post surgery and measured 60 mins post dose; type: ADME, organism-based
Mus musculus [28] = test: Analgesic activity in CD1 mouse model of formalin-induced nociception assessed as reduction in formalin-evoked paw flinching/licking response during second phase at 3 to 10 mg/kg, ip pretreated for 30 mins followed by formalin treatment and measured during 15 to 45 mins post formalin injection; type: functional, organism-based
[29] = Unbound plasma concentration in CD1 mouse model of chronic constriction injury-induced cold allodynia at 3 mg/kg, ip dosed at 5 weeks post surgery and measured 60 mins post dose; type: ADME, organism-based; conditions: in vivo, 1 h
[30] = Toxicity in CD1 mouse model of formalin-induced nociception assessed as hypothermia at 30 mg/kg, ip; type: organism-based; conditions: in vivo
Mus musculus [31] = test: Effect on thermal response latency in contralateral paw in CD1 mouse model of CFA-induced thermal hyperalgesia at 30 mg/kg, ip administered 72 hrs post CFA challenge and measured at 60 mins post dose by Hargreave's test; type: organism-based; conditions: in vivo, 1 h

Row | Structure (SMILES) | remaining at 10 min, 0.5 µM [2] [%] | IC50 [3] [µM] | TDI (Cytochrome P450 2B6 [4]) | IC50 (Cytochrome P450 2D6) [µM] | Papp [8] [×10⁻⁶ cm/s] | concentration at 2 h [10] [µM] | TDI (Cytochrome P450 2C9) | IC50 (Cytochrome P450 2B6 [11]) [µM] | Ratio [12] | TIME [13] [h] | fraction unbound [16] | remaining at 10 min, 0.5 µM [17] [%] | further results
1 | CC(C)COc1ccc(-c2cn(C)c3cc(C(=O)NS(C)(=O)=O)c(F)cc23)cn1 | 98 | 16 | Not Active | > 40 | 80.2 | 57 | Not Active | > 40 | 5.5 | 0.0275 | 0.008 | 98 | Drug uptake(free) [1]: 84 nM; Activity [5]: Non-Toxic; Activity (Mus musculus [6]): inactive; Activity [7]: Non-Toxic; Cp(f) [9]: 0.616 µM; Activity (Mus musculus [14]): inactive; concentration [15]: 44 µM; Activity (Mus musculus [18]): inactive
2 | CC(C)COc1ncc(-c2cn(C)c3cc(C(=O)NS(C)(=O)=O)ccc23)cc1Cl | 66 | 19 | Not Active | > 40 | 44.3 | 89 | Not Active | 9.7 | 8.7 | 0.0125 | < 0.001 | 95 | concentration at 1 h [19]: 3.3 µM; Activity (Mus musculus [20]): inactive; Cp(f) [21]: 0.136 µM; Drug uptake(free) [22]: 95 nM; Activity (Mus musculus [23]): Active; IC50 [24]: 4.8 µM; concentration [25]: 59 µM; IC50 [26]: > 30 µM; concentration at 1 h [27]: 27 µM; Activity (Mus musculus [28]): inactive; Cp(f) [29]: 0.0066 µM; Activity [30]: Non-Toxic; Activity (Mus musculus [31]): Non-Toxic
